According to article PMC5218480 (PLoS ONE, 2017):

Tested on: MV-4-11 cells
Experiment: Gene expression microarray analysis (Affymetrix PrimeView) and GSEA
Type: cell-based, human
Set-up: RFU PODN (11730768_x_at) / Fold change /veh PODN (11730768_x_at) / RFU LINC00158 (11744669_a_at) / Fold change /veh LINC00158 (11744669_a_at) / RFU DUSP10 (11751237_a_at) / Fold change /veh DUSP10 (11751237_a_at) / RFU ID3 (11757404_x_at) / Fold change /veh ID3 (11757404_x_at) / RFU PLEKHG5 (11737974_s_at) / Fold change /veh PLEKHG5 (11737974_s_at) / RFU LRRC4B (11730491_at) / Fold change /veh LRRC4B (11730491_at) / RFU GIMAP4 (11747438_a_at) / Fold change /veh GIMAP4 (11747438_a_at) / RFU KRT8 (11758183_x_at) / Fold change /veh KRT8 (11758183_x_at) / RFU CNN1 (11734310_a_at) / Fold change /veh CNN1 (11734310_a_at) / RFU VPS37D (11726825_at) / Fold change /veh VPS37D (11726825_at) / RFU C10orf10 (11716522_x_at) / Fold change /veh C10orf10 (11716522_x_at) / RFU KIR2DL2 /// KIR2DL4 /// KIR2DL5A /// KIR2DL5B /// KIR2DS1 /// KIR2DS2 /// KIR2DS3 /// KIR2DS4 /// KIR3DL3 /// KIR3DL3 /// KIR3DS1 (11738374_at) / Fold change /veh KIR2DL2 /// KIR2DL4 /// KIR2DL5A /// KIR2DL5B /// KIR2DS1 /// KIR2DS2 /// KIR2DS3 /// KIR2DS4 /// KIR3DL3 /// KIR3DL3 /// KIR3DS1 (11738374_at) / RFU C1QL1 (11718748_at) / Fold change /veh C1QL1 (11718748_at) / RFU TMPRSS4 (11747572_a_at) / Fold change /veh TMPRSS4 (11747572_a_at) / RFU HAMP (11756126_x_at) / Fold change /veh HAMP (11756126_x_at) / RFU RNFT2 (11725882_a_at) / Fold change /veh RNFT2 (11725882_a_at) / RFU NR4A2 (11747474_a_at) / Fold change /veh NR4A2 (11747474_a_at) / RFU ABCC12 (11746883_a_at) / Fold change /veh ABCC12 (11746883_a_at) / RFU TMEM136 (11760407_x_at) / Fold change /veh TMEM136 (11760407_x_at) / RFU CLDN22 /// WWC2 (11732394_at) / Fold change /veh CLDN22 /// WWC2 (11732394_at) / RFU HLA-DPB1 (11760878_x_at) / Fold change /veh HLA-DPB1 (11760878_x_at) / RFU SPINT1 (11716480_a_at) / Fold change /veh SPINT1 (11716480_a_at) / RFU GAP43 (11754022_s_at) / Fold change /veh GAP43 (11754022_s_at) / RFU A4GNT (11735810_at) / Fold change /veh A4GNT (11735810_at) / RFU PRB3 (11715151_x_at) / Fold change /veh PRB3 (11715151_x_at) / RFU TUBB4B (11761932_at) / Fold change /veh TUBB4B (11761932_at) / RFU CAPN14 (11732068_a_at) / Fold change /veh CAPN14 (11732068_a_at) / RFU TMCC2 (11721928_a_at) / Fold change /veh TMCC2 (11721928_a_at) / RFU IRGQ (11745062_a_at) / Fold change /veh IRGQ (11745062_a_at) / RFU FAM174B (11720279_a_at) / Fold change /veh FAM174B (11720279_a_at) / RFU TMPRSS4 (11748680_a_at) / Fold change /veh TMPRSS4 (11748680_a_at) / RFU FAM212B (11763350_a_at) / Fold change /veh FAM212B (11763350_a_at) / RFU PLEKHG5 (11743358_a_at) / Fold change /veh PLEKHG5 (11743358_a_at) / RFU ZSCAN30 (11745921_a_at) / Fold change /veh ZSCAN30 (11745921_a_at) / RFU CMKLR1 (11741424_a_at) / Fold change /veh CMKLR1 (11741424_a_at) / RFU LOC101060620 /// MAPK8IP1 (11723275_at) / Fold change /veh LOC101060620 /// MAPK8IP1 (11723275_at) / RFU SPTSSB (11747773_x_at) / Fold change /veh SPTSSB (11747773_x_at) / RFU PRSS12 (11739890_at) / Fold change /veh PRSS12 (11739890_at) / RFU BIN1 (11741810_x_at) / Fold change /veh BIN1 (11741810_x_at) / RFU WNT11 (11732464_a_at) / Fold change /veh WNT11 (11732464_a_at) / RFU C10orf10 (11716521_a_at) / Fold change /veh C10orf10 (11716521_a_at) / RFU C5orf56 (11738089_at) / Fold change /veh C5orf56 (11738089_at) / RFU CYB561 (11721691_x_at) / Fold change /veh CYB561 (11721691_x_at) / RFU ANKRD19P (11752326_a_at) / Fold change /veh ANKRD19P (11752326_a_at) / RFU OR2T12 /// OR2T33 /// OR2T8 (11738714_s_at) / Fold change /veh OR2T12 /// OR2T33 /// OR2T8 (11738714_s_at) / RFU VCAN (11748164_a_at) / Fold change /veh VCAN (11748164_a_at) / RFU JSRP1 (11732532_at) / Fold change /veh JSRP1 (11732532_at) / RFU KRTAP10-11 (11738290_x_at) / Fold change /veh KRTAP10-11 (11738290_x_at) / RFU MYO3A (11730013_a_at) / Fold change /veh MYO3A (11730013_a_at) / RFU EBF3 (11725865_a_at) / Fold change /veh EBF3 (11725865_a_at) / RFU CAMK2N1 (11719241_x_at) / Fold change /veh CAMK2N1 (11719241_x_at) / RFU C5orf56 (11738088_a_at) / Fold change /veh C5orf56 (11738088_a_at) / RFU OLFML3 (11715873_a_at) / Fold change /veh OLFML3 (11715873_a_at) / RFU LOC100653217 /// NTM (11731650_a_at) / Fold change /veh LOC100653217 /// NTM (11731650_a_at) / RFU MAPK11 (11762145_a_at) / Fold change /veh MAPK11 (11762145_a_at) / RFU FIZ1 (11724087_x_at) / Fold change /veh FIZ1 (11724087_x_at) / RFU OASL (11726364_x_at) / Fold change /veh OASL (11726364_x_at) / RFU SOX15 (11748057_x_at) / Fold change /veh SOX15 (11748057_x_at) / RFU CD79A (11719716_a_at) / Fold change /veh CD79A (11719716_a_at) / RFU HIST1H1D (11736915_at) / Fold change /veh HIST1H1D (11736915_at) / RFU CASKIN2 (11723855_a_at) / Fold change /veh CASKIN2 (11723855_a_at) / RFU LOC730098 (11760151_x_at) / Fold change /veh LOC730098 (11760151_x_at) / RFU OR4N2 (11742367_at) / Fold change /veh OR4N2 (11742367_at) / RFU PRRT2 (11749266_a_at) / Fold change /veh PRRT2 (11749266_a_at) / RFU SNX32 (11753110_a_at) / Fold change /veh SNX32 (11753110_a_at) / RFU CDHR5 (11726645_a_at) / Fold change /veh CDHR5 (11726645_a_at) / RFU RCAN1 (11760418_a_at) / Fold change /veh RCAN1 (11760418_a_at) / RFU FAM167A (11723789_a_at) / Fold change /veh FAM167A (11723789_a_at) / RFU FAM26E (11764081_at) / Fold change /veh FAM26E (11764081_at) / RFU ISYNA1 (11749810_s_at) / Fold change /veh ISYNA1 (11749810_s_at) / RFU ACY1 (11761880_at) / Fold change /veh ACY1 (11761880_at) / RFU 11764098_at / Fold change /veh 11764098_at / RFU SAMD14 (11745864_x_at) / Fold change /veh SAMD14 (11745864_x_at) / RFU NPB (11741838_a_at) / Fold change /veh NPB (11741838_a_at) / RFU TMPRSS6 (11731388_a_at) / Fold change /veh TMPRSS6 (11731388_a_at) / RFU KRTAP10-2 (11738614_at) / Fold change /veh KRTAP10-2 (11738614_at) / RFU ARHGAP8 /// PRR5-ARHGAP8 (11727945_x_at) / Fold change /veh ARHGAP8 /// PRR5-ARHGAP8 (11727945_x_at) / RFU KRTAP5-7 /// NADSYN1 (11734609_at) / Fold change /veh KRTAP5-7 /// NADSYN1 (11734609_at) / RFU RASL12 (11751679_a_at) / Fold change /veh RASL12 (11751679_a_at) / RFU CDKN2B (11736163_a_at) / Fold change /veh CDKN2B (11736163_a_at) / RFU PRF1 (11729649_at) / Fold change /veh PRF1 (11729649_at) / RFU, ZNF638 /// ZNF638-IT1 / Fold change vs veh, ZNF638 /// ZNF638-IT1 / RFU, PANK3 / Fold change vs veh, PANK3 / RFU, SH3YL1 / Fold change vs veh, SH3YL1 / RFU, ZEB2 / Fold change vs veh, ZEB2 / RFU, NRIP1 / Fold change vs veh, NRIP1 / RFU, PTTG1IP / Fold change vs veh, PTTG1IP / RFU, CAPN2 / Fold change vs veh, CAPN2 / RFU, MED14 / Fold change vs veh, MED14 / RFU, SNORA58 / Fold change vs veh, SNORA58 / RFU, C1orf63 / Fold change vs veh, C1orf63 / RFU, LRRFIP1 / Fold change vs veh, LRRFIP1 / RFU, NDUFAF7 / Fold change vs veh, NDUFAF7 / RFU, SLC12A2 / Fold change vs veh, SLC12A2 / RFU, IBTK / Fold change vs veh, IBTK / RFU, ESF1 / Fold change vs veh, ESF1 / Fold change vs veh, TMEM50B / RFU, TAOK1 / Fold change vs veh, TAOK1 / RFU, ACBD3 / Fold change vs veh, ACBD3 / RFU, TMA16 / Fold change vs veh, TMA16 / RFU, RWDD3 / Fold change vs veh, RWDD3 / RFU, BCAT1 / Fold change vs veh, BCAT1 / RFU, EDEM3 / Fold change vs veh, EDEM3 / RFU, TMEM33 / Fold change vs veh, TMEM33 / RFU, WDR75 / Fold change vs veh, WDR75 / RFU, AHCTF1 / Fold change vs veh, AHCTF1 / RFU, TFRC / Fold change vs veh, TFRC / RFU, ZDHHC17 / Fold change vs veh, ZDHHC17 / RFU, NOM1 / Fold change vs veh, NOM1 / RFU, ARL8B / Fold change vs veh, ARL8B / RFU, ZBTB11 / Fold change vs veh, ZBTB11 / RFU, TAMM41 / Fold change vs veh, TAMM41 / RFU, KIAA1704 /// LOC100996395 / Fold change vs veh, KIAA1704 /// LOC100996395 / RFU, ING1 / Fold change vs veh, ING1 / RFU, TRMT61B / Fold change vs veh, TRMT61B / RFU, FUBP3 / Fold change vs veh, FUBP3 / RFU, TP53 / Fold change vs veh, TP53 / RFU, TNKS2 / Fold change vs veh, TNKS2 / RFU, ZFP14 / Fold change vs veh, ZFP14 / RFU, ACTR2 / Fold change vs veh, ACTR2 / RFU, PPP3R1 / Fold change vs veh, PPP3R1 / RFU, PIK3R1 / Fold change vs veh, PIK3R1 / RFU, HNRNPA1 / Fold change vs veh, HNRNPA1 / RFU, RNF170 / Fold change vs veh, RNF170 / RFU, ZNF28 / Fold change vs veh, ZNF28 / RFU, RNGTT / Fold change vs veh, RNGTT / RFU, OGT / Fold change vs veh, OGT / RFU, BRD1 / Fold change vs veh, BRD1 / RFU, MARS / Fold change vs veh, MARS / RFU, ZNF655 / Fold change vs veh, ZNF655 / RFU, FAHD1 / Fold change vs veh, FAHD1 / RFU, BDP1 / Fold change vs veh, BDP1 / RFU, LRRCC1 / Fold change vs veh, LRRCC1 / RFU, ARID1A / Fold change vs veh, ARID1A / RFU, ZNF146 / Fold change vs veh, ZNF146 / RFU, ZNF330 / Fold change vs veh, ZNF330 / RFU, GPN3 / Fold change vs veh, GPN3 / RFU, C9orf123 / Fold change vs veh, C9orf123 / RFU, N4BP2L2 / Fold change vs veh, N4BP2L2 / RFU, ARFIP1 / Fold change vs veh, ARFIP1 / RFU, FAM179B / Fold change vs veh, FAM179B / RFU, BCL10 / Fold change vs veh, BCL10 / RFU, UHRF1BP1L / Fold change vs veh, UHRF1BP1L / RFU, BET1 / Fold change vs veh, BET1 / RFU, CNOT2 / Fold change vs veh, CNOT2 / RFU, ZNF268 / Fold change vs veh, ZNF268 / Fold change vs veh, ZNF507 / RFU, DGCR2 / Fold change vs veh, DGCR2 / RFU, WDSUB1 / Fold change vs veh, WDSUB1 / Fold change vs veh, HSP90B1 /// MIR3652 / RFU, ADSS / Fold change vs veh, ADSS / RFU, GK / Fold change vs veh, GK / RFU, ZNF148 / Fold change vs veh, ZNF148 / RFU, TAF9 / Fold change vs veh, TAF9 / RFU, SLC1A5 / Fold change vs veh, SLC1A5 / RFU, SLMO2 / Fold change vs veh, SLMO2 / RFU, ABCC4 / Fold change vs veh, ABCC4 / RFU, LOC101060439 /// RAP1B / Fold change vs veh, LOC101060439 /// RAP1B / RFU, RFX7 / Fold change vs veh, RFX7 / RFU, GTPBP10 / Fold change vs veh, GTPBP10 / RFU, CNEP1R1 / Fold change vs veh, CNEP1R1 / RFU, BIVM-ERCC5 /// ERCC5 / Fold change vs veh, BIVM-ERCC5 /// ERCC5 / RFU, ILF3 / Fold change vs veh, ILF3 / RFU 11762660_at / Fold change /veh 11762660_at / RFU VCAN (11757783_s_at) / Fold change /veh VCAN (11757783_s_at) / RFU DDX43 (11728927_at) / Fold change /veh DDX43 (11728927_at) / RFU KRT8 (11758188_x_at) / Fold change /veh KRT8 (11758188_x_at) / RFU NKD1 (11759106_at) / Fold change /veh NKD1 (11759106_at) / RFU SRD5A1 (11742802_a_at) / Fold change /veh SRD5A1 (11742802_a_at) / RFU TPSAB1 /// TPSB2 (11721975_s_at) / Fold change /veh TPSAB1 /// TPSB2 (11721975_s_at) / RFU GSTM3 (11746129_a_at) / Fold change /veh GSTM3 (11746129_a_at) / RFU IL23R (11737362_x_at) / Fold change /veh IL23R (11737362_x_at) / RFU TMEM51 (11727254_a_at) / Fold change /veh TMEM51 (11727254_a_at) / RFU PIWIL2 (11732686_x_at) / Fold change /veh PIWIL2 (11732686_x_at) / RFU ORM1 (11744905_x_at) / Fold change /veh ORM1 (11744905_x_at) / RFU CCDC152 (11743942_at) / Fold change /veh CCDC152 (11743942_at) / RFU ECM1 (11717891_a_at) / Fold change /veh ECM1 (11717891_a_at) / RFU IL23R (11748794_a_at) / Fold change /veh IL23R (11748794_a_at) / RFU TNFAIP8L3 (11732012_x_at) / Fold change /veh TNFAIP8L3 (11732012_x_at) / RFU MBOAT4 (11741988_at) / Fold change /veh MBOAT4 (11741988_at) / RFU 11764193_at / Fold change /veh 11764193_at / RFU TMEM53 (11763286_at) / Fold change /veh TMEM53 (11763286_at) / RFU MAGEB2 (11727129_at) / Fold change /veh MAGEB2 (11727129_at) / RFU TMEM200A (11744735_a_at) / Fold change /veh TMEM200A (11744735_a_at) / RFU CCDC152 (11751479_a_at) / Fold change /veh CCDC152 (11751479_a_at) / RFU FAM211A (11726209_a_at) / Fold change /veh FAM211A (11726209_a_at) / RFU RGS16 (11746705_a_at) / Fold change /veh RGS16 (11746705_a_at) / RFU VCAN (11755009_s_at) / Fold change /veh VCAN (11755009_s_at) / RFU RHOB (11743442_s_at) / Fold change /veh RHOB (11743442_s_at) / RFU RGS16 (11720943_a_at) / Fold change /veh RGS16 (11720943_a_at) / RFU RGS16 (11720944_at) / Fold change /veh RGS16 (11720944_at) / RFU, VPS4B / Fold change vs veh, VPS4B / RFU, CREB1 / Fold change vs veh, CREB1 / RFU, DNAJC13 / Fold change vs veh, DNAJC13 / RFU, GNAQ / Fold change vs veh, GNAQ / RFU, CDK5R1 / Fold change vs veh, CDK5R1 / RFU, ZRANB3 / Fold change vs veh, ZRANB3 / RFU, CUL4A / Fold change vs veh, CUL4A / RFU, CCNY / Fold change vs veh, CCNY / RFU, UFL1 / Fold change vs veh, UFL1 / RFU, COG3 / Fold change vs veh, COG3 / RFU, DIAPH2 / Fold change vs veh, DIAPH2 / RFU, SKA2 / Fold change vs veh, SKA2 / RFU, AFF3 / Fold change vs veh, AFF3 / RFU, LMF1 / Fold change vs veh, LMF1 / RFU, IPO11 / Fold change vs veh, IPO11 / RFU, DFFB / Fold change vs veh, DFFB / RFU, FOXP1 / Fold change vs veh, FOXP1 / RFU, CARD8 / Fold change vs veh, CARD8 / RFU, STRN3 / Fold change vs veh, STRN3 / RFU, ADK / Fold change vs veh, ADK / RFU, RASSF2 / Fold change vs veh, RASSF2 / RFU, WIPF1 / Fold change vs veh, WIPF1 / RFU, LARP1B / Fold change vs veh, LARP1B / RFU, RASA1 / Fold change vs veh, RASA1 / RFU, RB1 / Fold change vs veh, RB1 / RFU, PPFIA1 / Fold change vs veh, PPFIA1 / RFU, MAT2A / Fold change vs veh, MAT2A / RFU, CCT5 / Fold change vs veh, CCT5 / RFU, WDR92 / Fold change vs veh, WDR92 / RFU, CUX1 / Fold change vs veh, CUX1 / RFU, TTC7A / Fold change vs veh, TTC7A / RFU, TMEM135 / Fold change vs veh, TMEM135 / RFU, DEPTOR / Fold change vs veh, DEPTOR / RFU, CPM / Fold change vs veh, CPM / RFU, DNAJB6 / Fold change vs veh, DNAJB6 / RFU, CACNA2D3 / Fold change vs veh, CACNA2D3 / RFU, DTX4 / Fold change vs veh, DTX4 / RFU, TFCP2 / Fold change vs veh, TFCP2 / RFU, GMCL1 /// GMCL1P1 / Fold change vs veh, GMCL1 /// GMCL1P1 / RFU, AEBP2 / Fold change vs veh, AEBP2 / RFU, SNHG1 /// SNORD22 /// SNORD25 /// SNORD26 /// SNORD27 /// SNORD28 /// SNORD29 /// SNORD31 / Fold change vs veh, SNHG1 /// SNORD22 /// SNORD25 /// SNORD26 /// SNORD27 /// SNORD28 /// SNORD29 /// SNORD31 / Fold change (Aza/veh), C12orf56 (ProbeSet 11735607_a_at) / Fold change (ACY-1035/veh), C12orf56 (ProbeSet 11735607_a_at) / Fold change (Aza/veh), FGFR1OP (ProbeSet 11751329_s_at) / Fold change (ACY-1035/veh), FGFR1OP (ProbeSet 11751329_s_at) / Fold change (Aza/veh), VPS36 (ProbeSet 11739960_a_at) / Fold change (ACY-1035/veh), VPS36 (ProbeSet 11739960_a_at) / RFU SYPL1 (11715823_x_at) / Fold change /veh SYPL1 (11715823_x_at) / RFU IGFBP7 (11715501_s_at) / Fold change /veh IGFBP7 (11715501_s_at) / RFU REEP3 (11722064_at) / Fold change /veh REEP3 (11722064_at) / RFU IGLL1 (11728026_x_at) / Fold change /veh IGLL1 (11728026_x_at): dose or concentration left out as unconfirmed
Conditions: ProbeSet 11716844_s_at; LIST D

Nc1ncn([C@@H]2O[C@H](CO)[C@@H](O)[C@H]2O)c(=O)n1 [azacitidine]
RFU, DNAJC13: 111.36 RFU
